Measured values taken from paper PMC12731105, “Design and Synthesis of New Quinoxaline Analogs to Regenerate Sensory Auditory Hair Cells” (Cells, 2025).
≈ marks a conversion by molar mass, not a printed value.

Key:
mouse organ of Corti = experiment: TUNEL assay in the mouse organ of Corti; format: in vivo; conditions: mice, any treatment group (24, 48, 72 h)
Experimental: C57BL/6J male and female mice between postnatal day 24 and 30 P-24-30) were randomized into control and experimental groups (9 mice per group per compound), with each experimental group receiving a single intraperitoneal (IP) injection of Qx-294 or Qx-301 at a dose of 300 mg/kg body weight, dissolved in dimethyl sulfoxide (DMSO). Controls consisted of treatment with DMSO alone (vehicle). A total of 90 adult wild-type C57/BL6 mice were used in this study. Based on the analysis, animals were examined at various times following treatment as described below.
In vitro cell proliferation effects of all ten initial compounds (Figure 1A,B) were tested on HEI-OC1, Neuro-2A and HT-1080 cells by TACS® 3-(4,5-dimethylthiazol-2-yl)-2,5-diphenyltetrazolium bromide (MTT) Cell Proliferation Assay (R&D Systems, Minneapolis, MN, USA, 4890-025-K), following the manufacturer’s protocol. Absorbance was measured with SpectraMax® M Series Multi-Mode Microplate Reader with Soft Max Pro 7.2 GxP Software (Molecular Devices, Sunnyvale, CA, USA), and the average OD in control cells was taken as 100% of viability. Upon selecting the most viable compounds (Qx-294 and Qx-301), we proceeded with in vivo experiments. […]

Kinetic solubility assay = format: physicochemical; conditions: for solubility at 6 h: physiological buffer, pH 7.4, kinetic solubility, physiological buffer pH 7.4, room temperature, six hours
Experimental: A stock solution of each active compound in DMSO (10 mg/mL) was prepared and diluted into physiological buffer (pH 7.4) to a concentration of 100 µg/mL, and the mixture was left at room temperature for six hours. After six hours, the sample was centrifuged, and the supernatant was diluted with a methanol-water solution containing an internal standard (IS). The calibration curve was established using seven-point standards prepared by serial dilution in a range that the unknown sample signal would likely fall in and precisely simulating the sample preparation process. The standards and samples were quantified using LC-MS/MS, and unknown concentrations were back-calculated from the calibration curve.

zebrafish neuromast SCs = experiment: EdU proliferation assay in zebrafish neuromasts; format: in vivo, zebrafish (Danio rerio); conditions: p < 0.05; for Number of proliferating (EdU-positive) cells per neuromast vs control: zebrafish, 50–300 μg/mL, 24 h post-treatment
Experimental: In vitro cell proliferation effects of all ten initial compounds (Figure 1A,B) were tested on HEI-OC1, Neuro-2A and HT-1080 cells by TACS® 3-(4,5-dimethylthiazol-2-yl)-2,5-diphenyltetrazolium bromide (MTT) Cell Proliferation Assay (R&D Systems, Minneapolis, MN, USA, 4890-025-K), following the manufacturer’s protocol. Absorbance was measured with SpectraMax® M Series Multi-Mode Microplate Reader with Soft Max Pro 7.2 GxP Software (Molecular Devices, Sunnyvale, CA, USA), and the average OD in control cells was taken as 100% of viability. Upon selecting the most viable compounds (Qx-294 and Qx-301), we proceeded with in vivo experiments. For zebrafish treatment, animals were incubated for varied times with different concentrations (50, 100, 150, 200, 250, and 300 μg/mL) of Qx-294 or Qx-301 diluted in swimming (E3) media or administered via IP injections. Mice treatment followed the same procedures as described in [18]. Following treatment, animals or tissue samples were incubated in Click-it EdU or Click-it Plus TUNEL kits (Thermo Scientific, Waltham, MA, USA), following the manufacturer’s instructions to label proliferating and apoptotic cells, respectively.
Cell numbers in mouse cochleae or fish, as well as fish neuromast morphologies, were evaluated in 25 zebrafish per drug and treatment group across three experimental runs. […] Images were analyzed at 200X magnification, obtained from different neuromasts and cochlear regions (apex, middle, and base). HCs were quantified in the mouse OC by counting M7a-positive cells, with HC identity further confirmed by phalloidin-labeled stereocilia. Apoptosis and cell proliferation events, on the other hand, were quantified by counting TUNEL- and EdU-positive cells, respectively. […] The number of HCs (IHCs and OHCs) is expressed as units per 200 μm. […] IHCs and OHCs were counted on reconstructed confocal stacks using NIH ImageJ v1.8.0 software. […] Reliability statistics were calculated in SPSS v22.0. […] Fluorescence incorporation following treatment with FM1-43 was quantified according to [19] using ImageJ. […]

[1] = test system: mechanotransduction channel activity of neuromast HCs; experiment: FM1-43 uptake in zebrafish neuromasts; format: in vivo, zebrafish (Danio rerio); conditions: 300 μM, 7 h, with or without 1 h recovery
Experimental: The styryl pyridinium dye FM1-43 provides an optical measure of mechanotransduction channel function and, therefore, was used as a proxy for the viability of the neuromast cells treated with QX-294 or QX-301, as well as indirect information on the functional capability of newly formed HCs. FM1-43FX (Thermo Scientific, Waltham, MA, USA) uptake experiments in zebrafish were performed as previously described. Zebrafish were incubated with E3 alone (control) or in the presence of Qx-294 or Qx-301, both at 300 μM, for 7 h and then immediately exposed to 3 μM FM1-43FX for 40 s. Alternatively, animals were transferred to a fresh E3 solution for 1 h and then exposed to the dye. For mouse treatment, 24, 48, and 72 h after animals were injected with […] Qx-294 or Qx-301, their cochleae were dissected, transiently exposed to FM1-43 FX dye (1 mg/mL) for 45 s, and then fixed in 4% PFA. All animals were P28 at completion of the treatment. Fluorescence incorporated was quantified according to [19] using ImageJ (ImageJ2 1.54r).

Aqueous solubility (Kinetic solubility assay)	solubility at 6 h (Kinetic solubility assay)	FM1-43 fluorescence intensity in neuromasts vs control [1]	Structure (SMILES)	Apoptosis (TUNEL) in the OC (mouse organ of Corti)	Number of EdU-positive SCs compared between the two compounds (zebrafish neuromast SCs; zebrafish neuromasts, Two-Way ANOVA with Bonferroni correction)	Number of proliferating (EdU-positive) cells per neuromast vs control (zebrafish neuromast SCs)
low aqueous solubility	0.365 ± 0.028 µg/mL (≈ 1.83 µM)	no significant differences	c1ccc2nc(N3CCCC3)cnc2c1 [Qx-301, 2-(pyrrolidine)-quinoxaline]	no signs of apoptosis	significantly higher for Qx-301- than for Qx-294-treated neuromasts	significantly higher number of proliferating cells than the control groups
low aqueous solubility	~0.551 µg/mL (≈ 2.56 µM)	no significant differences	c1ccc2nc(N3CCOCC3)cnc2c1 [Qx-294, 2-(morpholine)-quinoxaline]	no signs of apoptosis		significantly higher number of proliferating cells than the control groups
